Results on 13 compounds are retold here after ChEMBL document CHEMBL1921731, “Novel antileukemic agents derived from tamibarotene and nitric oxide donors” (Bioorg Med Chem Lett, 2011).

The test system of data set [1] is NB-4. Briefly: Antiproliferative activity against human NB4 cells after 48 hrs by MTT assay. The class given is functional, cell-based. Particulars: NB-4, 48 h; call rule not given here. For orientation: Formazan colour is commonly taken as a measure of viable cells.
Data set [2] concerns K562. Briefly: Antiproliferative activity against human K562 cells after 48 hrs by MTT assay. The class given is functional, cell-based. Particulars: K562, 48 h.
A short description of data set [3]: Induction of NO release from L-cysteine in phosphate buffer at pH 7.4 at 0.4 mM after 3 hrs by Griess assay. The class given is physicochemical. As to conditions: pH 7.4, 3 h, 400 µM. For orientation: Griess reagent forms a coloured azo dye with nitrite.
Data set [4] relates to HL-60. Nature of the data set: Antiproliferative activity against human HL60 cells after 48 hrs by MTT assay. As to conditions: HL-60, 48 h. The class given is functional, cell-based.
The subject of data set [5] is NB-4. Nature of the data set: Ratio of tamibarotene IC50 to compound IC50 for human NB4 cells. Format: functional.
Data set [6] relates to HL-60. Briefly: Ratio of tamibarotene IC50 to compound IC50 for human HL60 cells. The class given is functional.
Data set [7] has as its system K562. Briefly: Ratio of tamibarotene IC50 to compound IC50 for human K562 cells. The class given is functional.

For the compound `CC1(C)CCC(C)(C)c2cc(NC(=O)c3ccc(C(=O)OCCCCOC(=O)c4ccc(OCc5c(-c6ccccc6)no[n+]5[O-])cc4)cc3)ccc21`, the values for the IC50 in data set [1], in data set [2] and in data set [4] were 952 µM, over 1000 µM and 651 µM, respectively. Also, the outcome in data set [3] was Active.

As to `CC1(C)CCC(C)(C)c2cc(NC(=O)c3ccc(C(=O)OCCCOC(=O)c4ccc(OCc5c(-c6ccccc6)no[n+]5[O-])cc4)cc3)ccc21`, the IC50 (in general, the midpoint of a concentration-inhibition curve) in data set [1] is 140 µM; in data set [2] it was over 1000 µM; in data set [4], 185 µM. Moreover, in data set [3], the result was Active.

Regarding `CC1(C)CCC(C)(C)c2cc(NC(=O)c3ccc(C(=O)N[C@@H](Cc4ccccc4)C(=O)OCc4c(-c5ccccc5)no[n+]4[O-])cc3)ccc21`, the IC50 in data set [1] was determined as 0.75 µM; in data set [2] it was 22.6 µM; in data set [4], 0.5 µM. For the same compound, the outcome in data set [3] was Active.

On to `CC1(C)CCC(C)(C)c2cc(NC(=O)c3ccc(C(=O)NCCNC(=O)c4ccc(OCc5c(-c6ccccc6)no[n+]5[O-])cc4)cc3)ccc21`, for which the IC50 in data set [1] came out at 1.93 µM; in data set [2], 13.3 µM; in data set [4], 1.14 µM. Also, the result in data set [3] was Active.

Take `CC1(C)CCC(C)(C)c2cc(NC(=O)c3ccc(C(=O)O)cc3)ccc21` [TAMIBAROTENE]: the IC50 in data set [1] worked out at 4.81 µM; in data set [2] it was 42.4 µM; in data set [4] it was 8.94 µM.

In the case of `CC1(C)CCC(C)(C)c2cc(NC(=O)c3ccc(C(=O)OCCOC(=O)c4ccc(OCc5c(-c6ccccc6)no[n+]5[O-])cc4)cc3)ccc21`, the IC50 in data set [1] is 119 µM; in data set [2], over 1000 µM; in data set [4], 395 µM. Further, the result in data set [3] was Active.

As to `CC1(C)CCC(C)(C)c2cc(NC(=O)c3ccc(C(=O)OCCCCCOC(=O)c4ccc(OCc5c(-c6ccccc6)no[n+]5[O-])cc4)cc3)ccc21`, the half-maximal inhibitory concentration (IC50) in data set [1] is 240 µM; in data set [2], over 1000 µM; in data set [4], 282 µM. Also, in data set [3], the result was Active.

In the case of `CC1(C)CCC(C)(C)c2cc(NC(=O)c3ccc(C(=O)OCCCCCCOC(=O)c4ccc(OCc5c(-c6ccccc6)no[n+]5[O-])cc4)cc3)ccc21`, the figures for the IC50 in data set [1], in data set [2] and in data set [4] were over 1000 µM, over 1000 µM and 486 µM, respectively. The outcome in data set [3] was Active.

For the compound `C[C@H](NC(=O)c1ccc(C(=O)Nc2ccc3c(c2)C(C)(C)CCC3(C)C)cc1)C(=O)OCc1c(-c2ccccc2)no[n+]1[O-]`, the figures for the IC50 in data set [1], in data set [2] and in data set [4] were 5.1 µM, 60.4 µM and 6.97 µM, respectively. Moreover, the outcome in data set [3] was Active.

Take `CC(C)[C@H](NC(=O)c1ccc(C(=O)Nc2ccc3c(c2)C(C)(C)CCC3(C)C)cc1)C(=O)OCc1c(-c2ccccc2)no[n+]1[O-]`: the concentration for half-maximal inhibition (IC50) in data set [1] is 4.39 µM; in data set [2], 192 µM; in data set [4], 5.85 µM. Moreover, the result in data set [3] was Active.

`CC1(C)CCC(C)(C)c2cc(NC(=O)c3ccc(C(=O)NCC(=O)OCc4c(-c5ccccc5)no[n+]4[O-])cc3)ccc21`: the “Ratio IC50” value in data set [5] is given as 25; in data set [6], 56; in data set [7], 6. Moreover, the half-inhibitory concentration (IC50) in data set [1] was 0.19 µM; in data set [2], 7.12 µM; in data set [4], 0.16 µM. Besides, the outcome in data set [3] was Active.

Consider `CC1(C)CCC(C)(C)c2cc(NC(=O)c3ccc(C(=O)NCCOC(=O)c4ccc(OCc5c(-c6ccccc6)no[n+]5[O-])cc4)cc3)ccc21`, for which the IC50 in data set [1] was 10.4 µM; in data set [2] it was over 1000 µM; in data set [4] it was 12.3 µM. Moreover, in data set [3], the result was Active.

Turning to `CC(C)C[C@H](NC(=O)c1ccc(C(=O)Nc2ccc3c(c2)C(C)(C)CCC3(C)C)cc1)C(=O)OCc1c(-c2ccccc2)no[n+]1[O-]`, the IC50 in data set [1] came to 0.97 µM; in data set [2], 64 µM; in data set [4], 0.74 µM. Further, the outcome in data set [3] was Active.
